Experimental data taken from patent US10072023B2, “Diarylethene compounds and uses thereof” (SWITCH MATERIALS, INC., priority 2011, dated 2018).

Columns and labels:
[1] = Solubility in indicated solvent; type: physicochemical; details: % wt soluble in triglyme
Source text: A compound with greater solubility allows for a formulation or material with a greater concentration of coloured molecule to be incorporated into a composition. This may allow for increasing the contrast ratio for a compound with a lesser absorbance at PSS. Inclusion of a solubilizing group in a compound according to various embodiments of the invention may increase solubility. Examples of solubilizing groups may include alkoxy or siloxy groups.

[2] = Absorbance at photostationary state (PSS) under simulated sunlight or 365 nm light; type: physicochemical; design: λ max: unit not given here; details: for Absorbance at PSS, 365 nm: 365 nm light source; for Absorbance at PSS, 365 nm / Absorbance at PSS, full / Absorbance at PSS, +UV / λ max: 2.0×10^−5 M in triglyme; for sensitivity index: ratio of PSS under 365 nm light to PSS under full spectrum light (without UV blocking film); for Absorbance at PSS, full: simulated sunlight (QSUN solar simulator), no UV blocking film; for Absorbance at PSS, +UV: simulated sunlight with UV blocking film (cutoff 370 nm); for λ max: wavelength of maximum absorbance in the visible range, ring-closed isoform
How it was run: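 Compounds at 2.0×10^−5 M in triglyme, photofaded with visible light, then irradiated with simulated sunlight (xenon arc) or 365 nm light until the UV/Vis spectrum stabilized. Also irradiated through a UV-blocking film (370 nm cutoff); sensitivity index is PSS under 365 nm divided by PSS under full spectrum.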

Compound	Solubility [1]	Absorbance at PSS, 365 nm [2]	sensitivity index [2]	Absorbance at PSS, full [2]	Absorbance at PSS, +UV [2]	λ max [2]
CC(C)(C)c1ccc(-c2cc(C3=C(c4cc(-c5ccc(C(C)(C)C)s5)sc4-c4ccc(C(C)(C)C)s4)C(F)(F)C(F)(F)C3(F)F)c(-c3ccc(C(C)(C)C)s3)s2)s1 [S003, 3′,3″″-(perfluorocyclopent-1-ene-1,2-diyl)bis(5,5″-di-tert-butyl-2,2′:5′,2″-terthiophene)]	<3 % wt	0.372	1.40	0.2655	0.2055	650
FC1(F)C(c2cc(-c3ccccc3)sc2-c2ccccc2)=C(c2cc(-c3ccc(Cl)cc3)sc2-c2ccccc2)C(F)(F)C1(F)F [S006, 5-(4-chlorophenyl)-3-(2-(2,5-diphenylthiophen-3-yl)-3,3,4,4,5,5-hexafluorocyclopent-1-en-1-yl)-2-phenylthiophene]	3 % wt	0.141	3.71	0.038	0.013	610
Cc1cc(-c2cc(C3=C(c4cc(-c5cc(C)c(C)s5)sc4-c4cc(C)c(C)s4)C(F)(F)C(F)(F)C3(F)F)c(-c3cc(C)c(C)s3)s2)sc1C [S011]	3 % wt	0.363	1.81	0.201	0.142	655
Cc1c(-c2ccccc2)sc(-c2ccccc2)c1C1=C(c2c(-c3ccccc3)sc(-c3ccccc3)c2C)C(F)(F)C(F)(F)C1(F)F [S017, 4,4′-(perfluorocyclopent-1-ene-1,2-diyl)bis(3-methyl-2,5-diphenylthiophene)]	1 % wt	0.049	5.44	0.009	0.0025	605
COc1ccc(-c2cc(C3=C(c4cc(-c5ccc(OC)s5)sc4-c4ccc(OC)s4)C(F)(F)C(F)(F)C3(F)F)c(-c3ccc(OC)s3)s2)s1 [S020, 3′,3″″-(perfluorocyclopent-1-ene-1,2-diyl)bis(5,5″-dimethoxy-2,2′:5′,2″-terthiophene)]	3 % wt	0.244	2.12	0.115	0.085	665
c1ccc(-c2nc(-c3nc(-c4ccccc4)sc3-c3nc(-c4ccccc4)sc3-c3ccccc3)c(-c3ccccc3)s2)cc1 [S032, 2,2′,2″,5,5″-pentaphenyl-4,4′:5′,4″-terthiazole]	1 % wt	0.594	18.56	0.032	0.008	600
CC(C)(C)c1ccc(-c2cc(C3=C(c4cc(-c5ccc(C(C)(C)C)s5)sc4-c4ccc(OCCCCC#N)cc4)C(F)(F)C(F)(F)C3(F)F)c(-c3ccc(OCCCCC#N)cc3)s2)s1 [S139, 5,5′-(((4,4″-(perfluorocyclopent-1-ene-1,2-diyl)bis(5′-(tert-butyl)-[2″,2″′-bithiophene]-5″,4-diyl))bis(4,1phenylene))bis(oxy))dipentanenitrile]	–	0.403	–	0.322	0.216	–
COc1ccc(-c2oc3cc(OC)ccc3c2C2=C(c3c(-c4ccc(OC)cc4)oc4cc(OC)ccc34)C(F)(F)C(F)(F)C2(F)F)cc1 [S140, 3,3′-(perfluorocyclopent-1-ene-1,2-diyl)bis(6-methoxy-2-(4-methoxyphenyl)benzofuran)]	–	0.276	4.25	0.065	0.032	516
CC(C)(C)c1ccc(-c2cc(C3=C(c4cc(-c5ccc(C(C)(C)C)s5)sc4-c4ccc(OCCCCC(=O)O)cc4)C(F)(F)C(F)(F)C3(F)F)c(-c3ccc(OCCCCC(=O)O)cc3)s2)s1 [S141, 5,5′-(4,4′-(4,4′-(perfluorocyclopent-1-ene-1,2-diyl)bis(5′-tert-butyl-2,2′-bithiophene-5,4-diyl))bis(4,1-phenylene)bis(oxy))dipentanoic acid]	–	0.377	–	0.282	0.183	–
COc1ccc2c(C3=C(c4c(-c5ccc(C)s5)oc5cc(OC)ccc45)C(F)(F)C(F)(F)C3(F)F)c(-c3ccc(C)s3)oc2c1 [S144, 3,3′-(perfluorocyclopent-1-ene-1,2-diyl)bis(6-methoxy-2-(5-methylthiophen-2-yl)benzofuran)]	–	0.318	3.88	0.082	0.04	513
Cc1cc(-c2sc(-c3sc(C)c(C)c3C)cc2C2=C(c3cc(-c4sc(C)c(C)c4C)sc3-c3cc(C)c(C)s3)C(F)(F)C(F)(F)C2(F)F)sc1C [S148, 4′,4″″-(perfluorocyclopent-1-ene-1,2-diyl)bis(3,4,4″,5,5″-pentamethyl-2,2′:5′,2″-terthiophene)]	–	0.244	1.63	0.15	0.092	650
Cc1csc(-c2cc(C3=C(c4cc(-c5cc(C)cs5)sc4-c4cc(C)cs4)C(F)(F)C(F)(F)C3(F)F)c(-c3cc(C)cs3)s2)c1 [S149, 3′,3″″-(perfluorocyclopent-1-ene-1,2-diyl)bis(4,4″-dimethyl-2,2′:5′,2″-terthiophene)]	–	0.339	1.41	0.241	0.169	647
COc1ccc2c(C3=C(c4c(-c5ccc(C(C)(C)C)cc5)oc5cc(OC)ccc45)C(F)(F)C(F)(F)C3(F)F)c(-c3ccc(C(C)(C)C)cc3)oc2c1 [S151, 3,3′-(perfluorocyclopent-1-ene-1,2-diyl)bis(2-(4-(tert-butyl)phenyl)-6-methoxybenzofuran)]	–	0.403	3.80	0.106	0.056	514
COc1ccc2c(C3=C(c4c(-c5ccc(-c6ccc(C(C)(C)C)s6)s5)oc5cc(OC)ccc45)C(F)(F)C(F)(F)C3(F)F)c(-c3ccc(-c4ccc(C(C)(C)C)s4)s3)oc2c1 [S152, 3,3′-(perfluorocyclopent-1-ene-1,2-diyl)bis(2-(5′-(tert-butyl)-[2,2′-bithiophen]-5-yl)-6-methoxybenzofuran)]	–	0.263	3.81	0.069	0.06	522
COc1ccc2c(C3=C(c4c(-c5ccc(OC)c(OC)c5)oc5cc(OC)ccc45)C(F)(F)C(F)(F)C3(F)F)c(-c3ccc(OC)c(OC)c3)oc2c1 [S155, 3,3′-(perfluorocyclopent-1-ene-1,2-diyl)bis(2-(3,4-dimethoxyphenyl)-6-methoxybenzofuran)]	–	0.329	4.06	0.081	0.045	516
CCOCCOCCOCCOc1ccc2c(C3=C(c4c(-c5ccc(C(C)(C)C)cc5)oc5cc(OCCOCCOCCOCC)ccc45)C(F)(F)C(F)(F)C3(F)F)c(-c3ccc(C(C)(C)C)cc3)oc2c1 [S161, 3,3′-(perfluorocyclopent-1-ene-1,2-diyl)bis(2-(4-(tert-butyl)phenyl)-6-(2-(2-(2-ethoxyethoxy)ethoxy)ethoxy)benzofuran)]	–	0.455	3.73	0.122	0.06	511
CC(C)(C)c1ccc(-c2oc3cc(O)ccc3c2C2=C(c3c(-c4ccc(C(C)(C)C)cc4)oc4cc(O)ccc34)C(F)(F)C(F)(F)C2(F)F)cc1 [S162, 3,3′-(perfluorocyclopent-1-ene-1,2-diyl)bis(2-(4-(tert-butyl)phenyl)benzofuran-6-ol)]	–	0.398	3.34	0.119	0.06	520
CC(C)(C)c1ccc(-c2oc3cc4c(cc3c2C2=C(c3c(-c5ccc(C(C)(C)C)cc5)oc5cc6c(cc35)OCO6)C(F)(F)C(F)(F)C2(F)F)OCO4)cc1 [S163, 7,7′-(perfluorocyclopent-1-ene-1,2-diyl)bis(6-(4-(tert-butyl)phenyl)-[1,3]dioxolo[4,5-f]benzofuran)]	–	0.533	2.12	0.252	0.116	588
COc1cc2oc(-c3ccc(C(C)(C)C)cc3)c(C3=C(c4c(-c5ccc(C(C)(C)C)cc5)oc5cc(OC)c(OC)cc45)C(F)(F)C(F)(F)C3(F)F)c2cc1OC [S164, 3,3′-(perfluorocyclopent-1-ene-1,2-diyl)bis(2-(4-(tert-butyl)phenyl)-5,6-dimethoxybenzofuran)]	–	0.546	2.32	0.235	0.134	554
CC(C)(C)c1ccc(-c2cc(C3=C(c4cc(-c5ccc(C(C)(C)C)s5)sc4-c4cccs4)C(F)(F)C(F)(F)C3(F)F)c(-c3cccs3)s2)s1 [S170, 4,4′-(perfluorocyclopent-1-ene-1,2-diyl)bis(5′-tert-butyl-5-(thiopheyl)-2,2′-bithiophene)]	–	–	–	0.287	0.182	645
